# Test results published in US7662825B2, “N-pyrazinyl-phenylsulphonamides and their use in the treatment of chemokine mediated diseases” (AstraZeneca AB, priority 2002, dated 2010).
row,SMILES,melting point
1,"COc1nc(SCC#N)cnc1NS(=O)(=O)c1cccc(Cl)c1Cl [Example 171, 2,3-Dichloro-N-[5-cyanomethylsulphanyl-3-methoxy-2-pyrazinyl]benzenesulphonamide]",158 to 159 °C
2,"COc1nc(Cl)c(Cl)nc1NS(=O)(=O)c1ccc(Cl)c(Cl)c1 [Example 64, 3,4-Dichloro-N-(5,6-dichloro-3-methoxy-2-pyrazinyl)benzenesulphonamide]",189 to 191 °C
3,"Cc1cccc(COc2nc(Cl)cnc2NS(=O)(=O)c2cccc(Cl)c2Cl)n1 [Example 93, 2,3-Dichloro-N-[S-chloro-3-(6-methyl-2-pyridinylmethoxy)-2-pyrazinyl]benzenesulphonamide]",158 to 159 °C
4,"O=S(=O)(Nc1ncc(Cl)nc1Cl)c1cccc(Cl)c1Cl [Example 74, 2,3-Dichloro-N-(3,5-dichloro-2-pyrazinyl)benzenesulphonamide]",181 to 182 °C
5,"Cc1cccc(COc2nc(C)cnc2NS(=O)(=O)c2cccc(Cl)c2Cl)n1 [Example 23, 2,3-Dichloro-N-[5-methyl-3-(6-methyl-2-pyridinylmethoxy)-2-pyrazinyl]benzenesulphonamide]",164 to 165 °C
6,Cc1cnc(NS(=O)(=O)c2cccc(Cl)c2Cl)c(OCc2ccc[n+]([O-])c2)n1 [Example 86],223 to 228 °C
7,COc1nc(N2CCCC2)cnc1NS(=O)(=O)c1cccc(Cl)c1Cl [Example 57],179 to 180 °C
8,"NCc1ccc(COc2nccnc2NS(=O)(=O)c2cccc(Cl)c2Cl)o1 [Example 197, N-(3-(5-Aminomethyl-2-furanylmethoxy)-2-pyrazinyl)-2,3-dichlorobenzenesulphonamide]",199 to 201 °C
9,"C#CCOc1nc(Cl)cnc1NS(=O)(=O)c1cccc(Cl)c1Cl [Example 188, 2,3-Dichloro-N-[5-chloro-3-(2-propynyloxy)-2-pyrazinyl]benzenesulphonamide]",138 to 139 °C
10,"COc1nc(Cl)cnc1NS(=O)(=O)c1cccc(Cl)c1C [Example 50, 3-Chloro-N-(5-chloro-3-methoxy-2-pyrazinyl)-2-methylbenzenesulphonamide]",150 to 152 °C
11,"COc1nc(SCC(=O)O)cnc1NS(=O)(=O)c1cccc(Cl)c1Cl [Example 83, [5-(2,3-Dichlorobenzenesulphonylamino)-6-methoxy-2-pyrazinylsulphanyl]acetic acid]",138 to 140 °C
12,"COc1nc(Br)cnc1NS(=O)(=O)c1ccccc1C#N [Example 184, N-(5-Bromo-3-methoxypyrazinyl)-2-cyanobenzenesulphonamide]",190 to 191.5 °C
13,"COc1nc(Br)c(Cl)nc1NS(=O)(=O)c1cccc(Cl)c1Cl [Example 125, N-(5-Bromo-6-chloro-3-methoxy-2-pyrazinyl)-2,3-dichlorobenzenesulphonamide]",177 to 178 °C
14,"COc1cccc(S(=O)(=O)Nc2nccnc2OC)c1Cl [Example 132, 2-Chloro-3-methoxy-N-(3-methoxy-2-pyrazinyl)benzenesulphonamide]",151 to 152 °C
15,"O=S(=O)(Nc1nccnc1OCc1ccc(CO)cc1)c1cccc(Cl)c1Cl [Example 111, 2,3-Dichloro-N-[3-(4-hydroxymethylphenylmethoxy)-2-pyrazinyl]benzenesulphonamide]",160 to 161 °C
16,"COc1cnc(NS(=O)(=O)c2cccc(Cl)c2Cl)c(OC)n1 [Example 56, 2,3-Dichloro-N-[3,5-dimethoxy-2-pyrazinyl]benzenesulphonamide]",138 to 139 °C

row,SMILES,melting point
1,"O=S(=O)(Nc1ncc(Cl)nc1OCc1cccc(CNCCO)c1)c1cccc(Cl)c1Cl [Example 108, 2,3-Dichloro-N-[5-chloro-3-{3-([2-hydroxyethylamino]methyl)phenylmethoxy}-2-pyrazinyl]benzenesulphonamide]",196 to 198 °C
2,"COc1nc(C)cnc1NS(=O)(=O)c1ccccc1F [Example 13, N-(3-Methoxy-5-methyl-2-pyrazinyl)-2-fluorobenzenesulphonamide]",150 to 152 °C
3,"COc1nc(Cl)cnc1NS(=O)(=O)c1ccc(Cl)cc1 [Example 53, 4-Chloro-N-(5-chloro-3-methoxy-2-pyrazinyl)benzenesulphonamide]",179 to 180 °C
4,"CNCc1cccc(COc2nc(Cl)cnc2NS(=O)(=O)c2cccc(Cl)c2Cl)c1 [Example 107, 2,3-Dichloro-N-[5-chloro-3-(3-methylaminomethylphenylmethoxy)-2-pyrazinyl]benzenesulphonamide]",167 to 168 °C
5,"O=S(=O)(Nc1ncc(Cl)nc1OCc1ccncc1)c1cccc(Cl)c1Cl [Example 87, 2,3-Dichloro-N-[5-chloro-3-(4-pyridinylmethoxy)-2-pyrazinyl]benzenesulphonamide]",226 to 229 °C (dec.)
6,"O=C(O)c1cccc(COc2nc(Cl)cnc2NS(=O)(=O)c2cccc(Cl)c2Cl)c1 [Example 105, 3-[6-Chloro-3-(2,3-dichlorobenzenesulphonylamino)-2-pyrazinyloxymethyl]benzoic acid]",218 to 224 °C (dec.)
7,"C#CCOc1cnc(NS(=O)(=O)c2cccc(Cl)c2Cl)c(OC)n1 [Example 198, 2,3-Dichloro-N-[3-methoxy-5-(2-propyn-1-yloxy)-2-pyrazinyl]benzenesulphonamide]",110 to 112 °C
8,"COc1nc(Cl)cnc1NS(=O)(=O)c1ccc(Cl)cc1Cl [Example 54, N-(5-Chloro-3-methoxy-2-pyrazinyl)-2,4-dichlorobenzenesulphonamide]",170 to 171 °C
9,"NC(=O)c1cnc(NS(=O)(=O)c2cccc(Cl)c2Cl)c(OCc2cccnc2)n1 [Example 135, 5-{[(2,3-Dichlorophenyl)sulphonyl]amino}-6-(3-pyridinylmethoxy)-2-pyrazinecarboxamide]",174 to 178 °C
10,"COc1nc(C#N)cnc1NS(=O)(=O)c1cccc(Cl)c1Cl [Example 190, 2,3-Dichloro-N-(5-cyano-3-methoxy-2-pyrazinyl)benzenesulphonamide]",239 to 240 °C
11,"O=S(=O)(Nc1ncc(Br)nc1OCc1cccnc1)c1cccc(Cl)c1Cl [Example 34, N-[5-Bromo-3-(3-pyridinylmethoxy)-2-pyrazinyl]-2,3-dichlorobenzenesulphonamide]",204 to 206 °C
12,"CN(C)Cc1ccc(COc2nc(Br)cnc2NS(=O)(=O)c2cccc(Cl)c2Cl)o1 [Example 176, N-[5-Bromo-3-(5-dimethylaminomethyl-2-furanylmethoxy)-2-pyrazinyl]-2,3-dichloro-benzenesulphonamide]",206 to 207 °C
13,"COc1ncc(Cl)nc1NS(=O)(=O)c1ccc(Cl)cc1Cl [Example 41, N-(6-Chloro-3-methoxy-2-pyrazinyl)-2,4-dichlorobenezenesulphonamide]",189 to 190 °C
14,"COC(=O)COc1cnc(NS(=O)(=O)c2cccc(Cl)c2Cl)c(OC)n1 [Example 199, {[5-(2,3-Dichlorophenylsulfonylamino)-6-methoxy-2-pyrazinyl]oxy}acetic acid, methyl ester]",185 to 190 °C
15,"O=S(=O)(Nc1ncc(Cl)nc1OCc1cccnc1)c1cccc(Cl)c1F [Example 96, 3-Chloro-N-[5-chloro-3-(3-pyridinylmethoxy)-2-pyrazinyl]-2-fluorobenzenesulphonamide]",177 to 178 °C
